In patent US8048925B2, “Bis(thio-hydrazide amide) salts for treatment of cancers” (Synta Pharmaceuticals Corp., priority 2004, dated 2011):
Read-outs that look alike come from different tables or passages of the source.

Assays:
[1] = Solubility in water, saturated suspension filtered and measured by HPLC; type: physicochemical; conditions: for solubility: thermodynamic from solid; for water solubility compared with the corresponding neutral or monosalt compounds: result in words
Experimental: A compound was weighed and water was added to the compound such that the resulting concentration of the compound was about 100 mg/mL. The mixture was then shaken well and sonicated (about 5-10 min at about 50° C.). If the added amounts of the compound were totally solubilized, more amounts of the compound were added to the solution and the mixture was shaken well and sonicated until a suspension was achieved. The suspension was then filtered through a 0.2 μm filter. The filtered solution was diluted with DMSO. Then the mixture was analyzed by HPLC to determine the concentration of the compound.
The HPLC system consisted of the HP 1100 Model (Agilent, Wilmington, Del.) equipped with a model 1100 quaternary pump, a model 1100 autosampler, a model 1100 Diode-Array Detector for UV detection at 280 nm. HPLC analysis was performed using a gradient mobile phase consisting of acetonitrile-water containing 0.1% formic acid. Mobile phases were degassed and filtered through a solvent filtration apparatus and pumped at a constant rate of 1.0 mL/min. Separation was made on an XTerra MS C18 analytical column, 4.6 mm i.d.×150 mm, (Waters Corp., Milford, Mass., USA) fitted with a pre-column filter (XTerra MS C18, 3.9 mm×20 mm). The column was maintained at 40° C.

[2] = Pharmacokinetics study in dog, bioavailability AUCpo/AUCiv; type: in vivo
Experimental: Male beagle dogs were acclimated for at least one week prior to use, were fed laboratory chow and water ad libitum, and were housed in temperature and humidity controlled rooms. Compounds were prepared as a solution for intravenous injection or a capsule for oral administration. Three dogs were used for the study. Compounds were injected intravenously via cephalic vein or by oral gavage. The dose was adjusted based on the animal's body weight. Blood samples were collected at intervals of 5, 10 and 30 min and 1, 2, 4, 6, 8 and 24 hr (example) after administration of the compound and plasma samples were prepared after centrifugation (5000 rpm, 8 min) of whole blood samples. Compound in plasma was measured by a liquid chromatography with tandem mass spectrophotometer (LC/MS/MS) after 50 μl of these samples were extracted by protein precipitation with acetonitrile. The compound concentration was determined by the standard curve (concentration vs. peak area) made with the same extraction procedure of controlled plasma. The area under curve (AUC) was calculated using the modified trapezoidal method. The portion of AUC from the last measurable plasma concentration to infinity was estimated by C/k, where k was expressed by the least square regression of the log-linear concentration time points and C represents the last measurable plasma concentration. Bioavailability was calculated by AUCpo/AUCiv.
Compounds (1) and (3) and its internal standard were extracted from heparinized plasma by protein precipitation with acetonitrile. Chromatography was achieved on an XTerra column (Waters, particle size: 5 μm; 100 mm×3.0 mm i.d.) using a mixture of acetonitrile, water and formic acid. Analysis was performed on a Sciex API 365 tandem mass spectrometer with turbo ion spray interface. Negative ions were measured using the multiple-reaction-monitoring (MRM) mode with m/z 399.0→165.1. The run time was 9 min per sample, and Compounds (1) and (3) were quantitated by a peak area ratio using 1/×^2-weighted least-square linear regression plot.

[3] = water, shaken and sonicated about 5-10 min at about 50° C., filtered 0.2 μm, HPLC
[4] = water, shaken and sonicated about 5-10 min at about 50° C., filtered 0.2 μm, HPLC, read-out: Solubility in water

water solubility compared with the corresponding neutral or monosalt compounds [1]	Molecule	solubility [1, 4]	further results
	CN(/N=C(\[O-])CC(=O)NN(C)C(=S)c1ccccc1)C(=S)c1ccccc1.[Na+] [Compound 3, Sodium; 2-(N′-methyl-N′-thiobenzoyl-hydrazinocarbonyl)-1-(methyl-thiobenzoyl-hydrazono)-ethanolate]	52.8 mg/mL	bioavailability ([2]; dog, plasma, male beagle dogs, capsule oral vs intravenous solution, AUCpo/AUCiv, read-out: Bioavailability): 35%
	CN(/N=C(\[O-])CC(=O)NN(C)C(=S)c1ccccc1)C(=S)c1ccccc1.[Li+] [Compound 4, Lithium; 2-(N′-methyl-N′-thiobenzoyl-hydrazinocarbonyl)-1-(methyl-thiobenzoyl-hydrazono)-ethanolate]	53.5 mg/mL	
	CN(/N=C(\[O-])C/C([O-])=N/N(C)C(=S)c1ccccc1)C(=S)c1ccccc1.[Mg+2] [Compound 8, Magnesium; 2-(N′-methyl-N′-thiobenzoyl-hydrazinocarbonyl)-1-(methyl-thiobenzoyl-hydrazono)-ethanolate]	43.5 mg/mL	
	CN(/N=C(\[O-])CC(=O)NN(C)C(=S)c1ccccc1)C(=S)c1ccccc1.[K+] [Compound 10, Monopotassium; 2-(N′-methyl-N′-thiobenzoyl-hydrazinocarbonyl)-1-(methyl-thiobenzoyl-hydrazono)-ethanolate]	41.2 mg/mL	
significantly greater water solubility	CN(/N=C(\[O-])C/C([O-])=N/N(C)C(=S)C1(C)CC1)C(=S)C1(C)CC1.[Na+].[Na+] [Compound 12, Disodium; 2-(N′-methyl-N′-thio-1-methylcyclopropyl-hydrazinocarbonyl)-1-(methyl-thio-1-methylcyclopropyl-hydrazono)-ethanolate]	> 1000 mg/mL	
significantly greater water solubility	CN(/N=C(\[O-])C/C([O-])=N/N(C)C(=S)C1CC1)C(=S)C1CC1.[Na+].[Na+] [Compound 13, Disodium; 2-(N′-methyl-N′-thiocyclopropyl-hydrazinocarbonyl)-1-(methyl-thiocyclopropyl-hydrazono)-ethanolate]	> 1000 mg/mL	
significantly greater water solubility	CN(/N=C(\[O-])C/C([O-])=N/N(C)C(=S)C1(C)CC1)C(=S)C1(C)CC1.[K+].[K+] [Compound 14, Dipotassium; 2-(N′-methyl-N′-thio-1-methylcyclopropyl-hydrazinocarbonyl)-1-(methyl-thio-1-methylcyclopropyl-hydrazono)-ethano late]	> 1000 mg/mL	
	CN(NC(=O)CC(=O)NN(C)C(=S)c1ccccc1)C(=S)c1ccccc1 [Neutral Form of Compound 1, N-Malonyl-bis(N′-thiobenzoyl-N′-methyl hydrazide)]		water solubility ([1]; water, listed as neutral form of Compounds (1) and (2)): about 0.1 mg/ml; Solubility in water [1, 3]: <0.1 mg/mL; bioavailability ([2]; male beagle dogs, capsule oral vs intravenous solution, AUCpo/AUCiv): 4.8%; bioavailability ([2]; see Example 16 (dog)): 4.8%
	Cholin; 2-(N′-methyl-N′-thiobenzoyl-hydrazinocarbonyl)-1-(methyl-thiobenzoyl-hydrazono)-ethanolate [Compound 11]		Solubility in water [1, 3]: 264.0 (>200) mg/mL

Molecule	water solubility compared with the corresponding neutral or monosalt compounds [1]	solubility [1, 4]	further results
CN(NC(=O)CC(=O)NN(C)C(=S)c1ccccc1)C(=S)c1ccccc1 [Compound 1, Disodium; 2-(N′-methyl-N′-thiobenzoyl-hydrazinocarbonyl)-1-(methyl-thiobenzoyl-hydrazono)-ethanolate]	significantly greater water solubility		solubility ([1]; 50 °C, water, read-out: water solubility): > 1000 mg/mL; Solubility in water [1, 3]: >1000 mg/mL; bioavailability ([2]; male, beagle, plasma, oral, see Example 16 (dog), read-out: bioavailability): 80%
CN(/N=C(\[O-])C/C([O-])=N/N(C)C(=S)c1ccccc1)C(=S)c1ccccc1.[Li+].[Li+] [Compound 5, Dilithium; 2-(N′-methyl-N′-thiobenzoyl-hydrazinocarbonyl)-1-(methyl-thiobenzoyl-hydrazono)-ethanolate]	significantly greater water solubility	626 mg/mL	
